What was measured:
[1] = system: P. aeruginosa clinical isolates; assay: Antibiotic susceptibility testing, NEG MIC Type 30 panel on MicroScan WalkAway-96 SI, MICs interpreted according to NCCLS guidelines; format: cell-based, Pseudomonas aeruginosa; conditions: for 60 MIC: MIC of resistant isolates
Source text: The wild-type reference strain P. aeruginosa PAO1 was obtained from the ATCC (AT47085). The other P. aeruginosa strains were collected from patients at the Robert Bosch Hospital in Stuttgart, Germany. They were recovered from respiratory samples (n=51), swabs (n=5), urine (n=2) and feces (n=2). All isolates were identified with the API 20NE system (bioMerieux, Marcy l'Etoile, France) and the NEG Breakpoint Combo Type 30 panel on the MicroScan WalkAway ®-96 SI system (Dade Behring, Liederbach, Germany). All bacterial strains were either routinely cultured at 37° C. on Mueller-Hinton (MH) agar or grown in Luria Bertani broth (LB).
The antibiotic susceptibility was determined with the NEG MIC Type 30 panel on the MicroScan WalkAway ®-96 SI system. The MICs were interpreted according to the NCCLS guidelines.
The test collective of P. aeruginosa isolates was recovered from three intensive care units (ICU) or other hospital wards as far as an unusual multidrug resistance was observed. […] 4.

[2] = system: P. aeruginosa clinical isolates; parameters: species or system Pseudomonas aeruginosa; conditions: predicted from mutations and resistance genes found by array in 60 isolates
Procedure: Chromosomal DNA was extracted with the QIAmp DNA Mini Kit, plasmid DNA with the QIAprep Spin Miniprep Kit according to manufacturer's instructions (Qiagen, Hilden, Germany). A set of 4 multiplex PCRs (Tab. 1) was set up to amplify the sequences of interest from the chosen genes. The PCRs were carried out with the Advantage®-GC Genomic PCR Kit (BD Bioscience, San Jose, USA) according to manufacturer's instructions, for fluorescence labeling 5 μl of each 1 mM dNTP was used, for dCTP a 2:3 mixture of Cy3-dCTP and dCTP. The cycle reactions consisted of 30 cycles of 30 s at 95° C., 30 s at 55° C. and 1 min at 72° C. PCR products were purified with the QIAquick PCR Purification Kit (Qiagen, Hilden, Germany) according to the manufacturer's instructions. The quality and sizes of PCR products were checked on a lab-on-a-chip Bioanalyzer 2100 electrophoresis with the DNA 1500 LabChip kit (Agilent, Böblingen, Germany). Sequencing was performed on the ABI PRISM® 310 Genetic Analyzer using the BigDyee® Terminator Cycle Sequencing Kit v1.1 (Applied Biosystems, Foster City, USA). The manufacturer's protocol was followed using the same primers as for the multiplex PCRS. […]
The oligonucleotide arrays were scanned with a arrayWoRx Biochip Reader (Applied Precision, Marlborough, UK). The scanner settings for fluorescence signal acquisition were set to “High Precision” and 0.2 s acquisition time. […]

[3] = Table 3, test collective of 60 clinical isolates
[4] = Table 6, phenotypic resistance rate, 60 clinical isolates
[5] = Table 6, phenotypic resistance, 60 clinical isolates

Row | Molecule | % of resistant isolates out of 60 [1, 3] [%] | Number of resistant isolates out of 60 [1, 3] | 60 MIC ([1]; Table 6) [µg/mL] | % of resistant isolates out of 60 [1, 4] [%] | Number of resistant isolates out of 60 [1, 5] | susceptibility rate ([1]; test collective of isolates) | Susceptibility profile, Isolate 1 ([1]; first of 3 consecutive isolates from the same patient) | Susceptibility profile, Isolate 3 ([1]; last of 3 consecutive isolates from the same patient, within three weeks) | Susceptibility profile, Isolate 2 ([1]; second of 3 consecutive isolates from the same patient, collected one week after the first) | Cumulative resistance predicttion deduced from array [2] [%] | resistance rate ([1]; test collective of isolates) [%]
1 | CC(C)(O/N=C(\C(=O)N[C@@H]1C(=O)N2C(C(=O)[O-])=C(C[n+]3ccccc3)CS[C@H]12)c1csc(N)n1)C(=O)O [Ceftazidim, ceftazidime] | 33 | 20 | >16 | 33 | 20 | – | – | – | – | – | –
2 | C[C@@H](O)[C@H]1C(=O)N2C(C(=O)O)=C(SCCN=CN)C[C@H]12 [Imipenem, imipenem] | – | – | – | – | – | less than 55% | – | – | – | – | –
3 | NC[C@H]1O[C@H](O[C@H]2[C@H](O)[C@@H](O[C@H]3O[C@H](CO)[C@@H](O)[C@H](N)[C@H]3O)[C@H](N)C[C@@H]2N)[C@H](N)C[C@@H]1O [Tobramycin, tobramycin] | – | – | – | – | – | – | susceptible | resistance | susceptible | – | –
4 | colistin | 0 | 0 | – | 0 | 0 | – | – | – | – | 0 | 0
5 | gentamicin | 37 | 22 | >8 | 37 | 22 | – | – | – | – | 45 | –
6 | piperacillin/tazobactam | 33 | 20 | >64 | 33 | 20 | – | – | – | – | – | –

Source: patent publication US20090215638A1, “ANTIBIOTIC SUSCEPTIBILITY AND VIRULENCE FACTOR DETECTION IN PSEUDOMONAS AERUGINOSA” (priority 2005, published 2009)
